Data as given in PubChem BioAssay AID1259407 (Chemical Carcinogenesis Research Information System (CCRIS), 2018).
Active and inactive are the calls of the source. No rule for the calls is given here.

System: CCRIS mutagenicity, Ames/micronucleus/aberration tests
Test: CCRIS mutagenicity studies
[1] = Test System: AMES SALMONELLA TYPHIMURIUM, Strain/Indicator: TA98, Metabolic Activation: NONE, Method: STANDARD PLATE
[2] = Test System: AMES SALMONELLA TYPHIMURIUM, Strain/Indicator: TA100, Metabolic Activation: NONE, Method: STANDARD PLATE
[3] = Test System: AMES SALMONELLA TYPHIMURIUM, Strain/Indicator: TA100, Metabolic Activation: RAT, LIVER, S-9, AROCLOR 1254, Method: STANDARD PLATE

SMILES: Clc1cccc(-c2ccc(Cl)c(Cl)c2Cl)c1Cl
- mutagenic call (Test System: AMES SALMONELLA TYPHIMURIUM, Strain/Indicator: TA97, Metabolic Activation: HAMSTER, LIVER, S-9, AROCLOR 1254 (10 OR 30%), Method: PREINCUBATION): inactive; negative
- mutagenic call (Test System: AMES SALMONELLA TYPHIMURIUM, Strain/Indicator: TA97, Metabolic Activation: NONE, Method: PREINCUBATION): inactive; negative
- mutagenic call (Test System: AMES SALMONELLA TYPHIMURIUM, Strain/Indicator: TA97, Metabolic Activation: RAT, LIVER, S-9, AROCLOR 1254 (10 OR 30%), Method: PREINCUBATION): inactive; negative
- mutagenic call (Test System: AMES SALMONELLA TYPHIMURIUM, Strain/Indicator: TA98, Metabolic Activation: HAMSTER, LIVER, S-9, AROCLOR 1254 (10 OR 30%), Method: PREINCUBATION): inactive; negative
- mutagenic call (Test System: AMES SALMONELLA TYPHIMURIUM, Strain/Indicator: TA98, Metabolic Activation: NONE, Method: PREINCUBATION): inactive; negative
- mutagenic call (Test System: AMES SALMONELLA TYPHIMURIUM, Strain/Indicator: TA98, Metabolic Activation: RAT, LIVER, S-9, AROCLOR 1254 (10 OR 30%), Method: PREINCUBATION): inactive; negative
- mutagenic call (Test System: AMES SALMONELLA TYPHIMURIUM, Strain/Indicator: TA100, Metabolic Activation: HAMSTER, LIVER, S-9, AROCLOR 1254 (10 OR 30%), Method: PREINCUBATION): inactive; negative
- mutagenic call (Test System: AMES SALMONELLA TYPHIMURIUM, Strain/Indicator: TA100, Metabolic Activation: NONE, Method: PREINCUBATION): inactive; negative
- mutagenic call (Test System: AMES SALMONELLA TYPHIMURIUM, Strain/Indicator: TA100, Metabolic Activation: RAT, LIVER, S-9, AROCLOR 1254 (10 OR 30%), Method: PREINCUBATION): inactive; negative
- mutagenic call (Test System: AMES SALMONELLA TYPHIMURIUM, Strain/Indicator: TA1535, Metabolic Activation: HAMSTER, LIVER, S-9, AROCLOR 1254 (10 OR 30%), Method: PREINCUBATION): inactive; negative
- mutagenic call (Test System: AMES SALMONELLA TYPHIMURIUM, Strain/Indicator: TA1535, Metabolic Activation: NONE, Method: PREINCUBATION): inactive; negative
- mutagenic call (Test System: AMES SALMONELLA TYPHIMURIUM, Strain/Indicator: TA1535, Metabolic Activation: RAT, LIVER, S-9, AROCLOR 1254 (10 OR 30%), Method: PREINCUBATION): inactive; negative
- mutagenic call (Test System: AMES SALMONELLA TYPHIMURIUM, Strain/Indicator: TA1537, Metabolic Activation: HAMSTER, LIVER, S-9, AROCLOR 1254 (10 OR 30%), Method: PREINCUBATION): inactive; negative
- mutagenic call (Test System: AMES SALMONELLA TYPHIMURIUM, Strain/Indicator: TA1537, Metabolic Activation: NONE, Method: PREINCUBATION): inactive; negative
- mutagenic call (Test System: AMES SALMONELLA TYPHIMURIUM, Strain/Indicator: TA1537, Metabolic Activation: RAT, LIVER, S-9, AROCLOR 1254 (10 OR 30%), Method: PREINCUBATION): inactive; negative
- mutagenic call (Test System: E. COLI, Strain/Indicator: WP2 UVRA, Metabolic Activation: HAMSTER, LIVER, S-9, AROCLOR 1254, Method: STANDARD PLATE): inactive; negative
- mutagenic call (Test System: E. COLI, Strain/Indicator: WP2 UVRA, Metabolic Activation: HAMSTER, LIVER, S-9, Method: STANDARD PLATE): inactive; negative
- mutagenic call (Test System: E. COLI, Strain/Indicator: WP2 UVRA, Metabolic Activation: MOUSE, LIVER, S-9, AROCLOR 1254, Method: STANDARD PLATE): inactive; negative
- mutagenic call (Test System: E. COLI, Strain/Indicator: WP2 UVRA, Metabolic Activation: MOUSE, LIVER, S-9, Method: STANDARD PLATE): inactive; negative
- mutagenic call (Test System: E. COLI, Strain/Indicator: WP2 UVRA, Metabolic Activation: NONE, Method: STANDARD PLATE): inactive; negative
- mutagenic call (Test System: E. COLI, Strain/Indicator: WP2 UVRA, Metabolic Activation: RAT, LIVER, S-9, AROCLOR 1254, Method: STANDARD PLATE): inactive; negative
- mutagenic call (Test System: E. COLI, Strain/Indicator: WP2 UVRA, Metabolic Activation: RAT, LIVER, S-9, Method: STANDARD PLATE): inactive; negative

SMILES: COc1cccc2c1cc1c3c(cc4c(c32)OCO4)C(=O)N1
- mutagenic call (Test System: AMES SALMONELLA TYPHIMURIUM, Strain/Indicator: D3052, Metabolic Activation: NONE, Method: STANDARD PLATE): inactive; negative
- mutagenic call (Test System: AMES SALMONELLA TYPHIMURIUM, Strain/Indicator: D3052, Metabolic Activation: RAT, LIVER, S-9, PHENOBARBITAL, Method: STANDARD PLATE): inactive; negative
- mutagenic call (Test System: AMES SALMONELLA TYPHIMURIUM, Strain/Indicator: G46, Metabolic Activation: NONE, Method: STANDARD PLATE): inactive; negative
- mutagenic call (Test System: AMES SALMONELLA TYPHIMURIUM, Strain/Indicator: G46, Metabolic Activation: RAT, LIVER, S-9, PHENOBARBITAL, Method: STANDARD PLATE): inactive; negative
- mutagenic call [1]: inactive; negative
- mutagenic call (Test System: AMES SALMONELLA TYPHIMURIUM, Strain/Indicator: TA98, Metabolic Activation: RAT, LIVER, S-9, PHENOBARBITAL, Method: STANDARD PLATE): inactive; negative
- mutagenic call [2]: inactive; negative
- mutagenic call [3]: active; positive
- mutagenic call (Test System: AMES SALMONELLA TYPHIMURIUM, Strain/Indicator: TA100, Metabolic Activation: RAT, LIVER, S-9, PHENOBARBITAL, Method: STANDARD PLATE): inactive; negative
- mutagenic call (Test System: AMES SALMONELLA TYPHIMURIUM, Strain/Indicator: TA1535, Metabolic Activation: NONE, Method: STANDARD PLATE): inactive; negative
- mutagenic call (Test System: AMES SALMONELLA TYPHIMURIUM, Strain/Indicator: TA1535, Metabolic Activation: RAT, LIVER, S-9, PHENOBARBITAL, Method: STANDARD PLATE): inactive; negative
- mutagenic call (Test System: AMES SALMONELLA TYPHIMURIUM, Strain/Indicator: TA1537, Metabolic Activation: NONE, Method: STANDARD PLATE): inactive; negative
- mutagenic call (Test System: AMES SALMONELLA TYPHIMURIUM, Strain/Indicator: TA1537, Metabolic Activation: RAT, LIVER, S-9, AROCLOR 1254, Method: STANDARD PLATE): active; positive
- mutagenic call (Test System: AMES SALMONELLA TYPHIMURIUM, Strain/Indicator: TA1978, Metabolic Activation: NONE, Method: STANDARD PLATE): inactive; negative
- mutagenic call (Test System: AMES SALMONELLA TYPHIMURIUM, Strain/Indicator: TA1978, Metabolic Activation: RAT, LIVER, S-9, PHENOBARBITAL, Method: STANDARD PLATE): inactive; negative
- mutagenic call (Test System: AMES SALMONELLA TYPHIMURIUM, Strain/Indicator: TM677/8-AZAGUANINE, Metabolic Activation: NONE, Method: SUSPENSION/PLATE): inactive; negative

SMILES: CC(=O)Oc1cccc2cccnc12
- mutagenic call (Test System: AMES SALMONELLA TYPHIMURIUM, Strain/Indicator: TA100, Metabolic Activation: S-9, Method: PREINCUBATION): inactive; negative

SMILES: CC(=O)O[C@H]1[C@H](OC(C)=O)COC(Nc2ccc([N+](=O)[O-])cc2)[C@@H]1OC(C)=O (stereo not given in full)
- mutagenic call [2]: inactive; negative

SMILES: CC1(C)CCC[C@]2(C)[C@@H](C=O)C(C=O)=CC[C@@H]12
- mutagenic call [1]: inactive; negative
- mutagenic call [2]: inactive; negative
- mutagenic call (Test System: AMES SALMONELLA TYPHIMURIUM, Strain/Indicator: TA2637, Metabolic Activation: NONE, Method: STANDARD PLATE): inactive; negative
- mutagenic call (Test System: CHINESE HAMSTER V-79, Strain/Indicator: V-79/6-THIOGUANINE (HGPRT), Metabolic Activation: NONE): inactive; negative

SMILES: C[C@H](CCC(=O)O)[C@H]1CC[C@H]2[C@@H]3[C@@H](O)C[C@@H]4C[C@H](O)CC[C@]4(C)[C@H]3CC[C@]12C
- mutagenic call (Test System: AMES SALMONELLA TYPHIMURIUM, Strain/Indicator: TA98, Metabolic Activation: NONE, Method: FLUCTUATION TEST): active; positive
- mutagenic call (Test System: AMES SALMONELLA TYPHIMURIUM, Strain/Indicator: TA100, Metabolic Activation: NONE, Method: FLUCTUATION TEST): inactive; negative
- mutagenic call [2]: inactive; negative
- mutagenic call [3]: inactive; negative

SMILES: CC(=O)OCc1ccccc1N=Nc1ccc(N(C)C)cc1
- mutagenic call (Test System: AMES SALMONELLA TYPHIMURIUM, Strain/Indicator: TA98, Metabolic Activation: RAT, LIVER, S-9, POLYCHLORINATED BIPHENYLS, Method: PREINCUBATION): active; positive
- mutagenic call (Test System: AMES SALMONELLA TYPHIMURIUM, Strain/Indicator: TA100, Metabolic Activation: RAT, LIVER, S-9, POLYCHLORINATED BIPHENYLS, Method: PREINCUBATION): active; positive

SMILES: CC(=O)[O-].CC(=O)[O-].[Hg+2]
- mutagenic call (End Point: IN VITRO MICRONUCLEUS, Test System: CHL/IU CELLS, Metabolic Activation: NONE): active; positive
- mutagenic call (Test System: CHINESE HAMSTER OVARY, Strain/Indicator: AS52/6-THIOGUANINE, Metabolic Activation: NONE): active; positive
- mutagenic call (Test System: CHINESE HAMSTER OVARY, Strain/Indicator: CHO-AS52/6-THIOGUANINE, Metabolic Activation: NONE): active; positive

SMILES: CNc1ccc(C(=C2C=CC(=[N+](C)C)C=C2)c2ccc(N(C)C)cc2)cc1
- mutagenic call (Test System: AMES SALMONELLA TYPHIMURIUM, Strain/Indicator: TA100, Method: PREINCUBATION): active; positive

SMILES: Cc1ccc2c(c1)c(=NC(=O)c1ccc([N+](=O)[O-])cc1)sn2C(=O)c1ccc([N+](=O)[O-])cc1
- mutagenic call (Test System: AMES SALMONELLA TYPHIMURIUM, Strain/Indicator: TA100, Metabolic Activation: S-9, Method: STANDARD PLATE): active; positive
